From ChEMBL document CHEMBL6083255, “Synthesis and biological evaluation of novel isobenzofuran-1(3H)-one derivatives as antidepressant agents” (2024) come the findings set out here.

The subject of assay [1] is RBL-2H3. In words: Cytotoxicity against Wistar rat RBL-2H3 cells assessed as cell viability at 1 uM incubated for 24 hrs by MTT assay. The format is functional. As to conditions: read-out: Activity. A general note: Tetrazolium dyes change colour on reduction, which living cells bring about.
The subject of assay [2] is RBL-2H3. In words: Cytotoxicity against Wistar rat RBL-2H3 cells assessed as cell viability at 5 uM incubated for 24 hrs by MTT assay. In kind it is functional. As to conditions: read-out: Activity.
In assay [3] the test system is RBL-2H3. In words: Cytotoxicity against Wistar rat RBL-2H3 cells assessed as cell viability at 25 uM incubated for 24 hrs by MTT assay. The format is functional. The following applies: read-out: Activity.
The subject of assay [4] is RBL-2H3. In words: Cytotoxicity against Wistar rat RBL-2H3 cells assessed as cell viability at 125 uM incubated for 24 hrs by MTT assay. The format is functional. As to conditions: read-out: Activity.
Assay [5] deals with Sodium-dependent serotonin transporter (Rattus norvegicus) (UniProt P31652). In words: Inhibition of SERT in Wistar rat RBL-2H3 cells assessed as decrease in fluorescence intensity at 10 uM preincubated for 2 hrs followed by APP+ addition and measured after 1 hr by fluorescence based assay. In kind it is cell-based. The following applies: time 3.0 hrs.
Chain of Sodium-dependent serotonin transporter (Rattus norvegicus) (P31652 whole entry): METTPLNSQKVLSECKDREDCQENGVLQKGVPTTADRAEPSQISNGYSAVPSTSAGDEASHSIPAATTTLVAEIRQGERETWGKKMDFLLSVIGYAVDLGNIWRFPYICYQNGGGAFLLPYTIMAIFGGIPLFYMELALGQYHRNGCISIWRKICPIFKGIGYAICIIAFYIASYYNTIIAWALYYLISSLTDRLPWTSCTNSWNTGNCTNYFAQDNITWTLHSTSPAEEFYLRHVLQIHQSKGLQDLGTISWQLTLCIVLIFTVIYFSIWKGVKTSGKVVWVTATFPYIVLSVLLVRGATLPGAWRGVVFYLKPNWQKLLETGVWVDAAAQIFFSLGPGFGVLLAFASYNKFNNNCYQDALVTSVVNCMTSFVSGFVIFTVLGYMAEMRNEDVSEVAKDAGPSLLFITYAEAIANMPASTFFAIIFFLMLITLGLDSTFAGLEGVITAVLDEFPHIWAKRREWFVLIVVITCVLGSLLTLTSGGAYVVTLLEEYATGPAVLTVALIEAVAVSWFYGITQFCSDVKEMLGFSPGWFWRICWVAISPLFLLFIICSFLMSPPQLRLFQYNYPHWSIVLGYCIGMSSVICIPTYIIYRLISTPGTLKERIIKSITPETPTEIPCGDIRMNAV
In assay [6] the test system is CHO-K1. In words: Antagonist activity at mu opioid receptor in CHO-K1 cells assessed as intracellular fluorescence intensity at 50 uM incubated for 2 mins by microplate reader assay. In kind it is cell-based. As to conditions: Cricetulus griseus.
For assay [7], the system named is CHO-K1. In words: Agonist activity at mu opioid receptor in CHO-K1 cells assessed as increase in intracellular fluorescence intensity at 30 uM incubated for 90 sec by microplate reader assay. The format is cell-based. The following applies: Cricetulus griseus, filed as agonist.
In assay [8] the test system is RBL-2H3. In words: Cytotoxicity against Wistar rat RBL-2H3 cells assessed as cell viability over 20 uM by MTT assay. The format is functional, cell-based.
The test system of assay [9] is RBL-2H3. In words: Induction of cell death in Wistar rat RBL-2H3 cells assessed as cell viability over 20 uM by MTT assay. The format is functional, cell-based.
For assay [10], the system named is CHO-K1. In words: Agonist activity at mu opioid receptor in CHO-K1 cells assessed as increase in intracellular fluorescence intensity at 50 uM incubated for 90 sec by microplate reader assay. In kind it is cell-based. As to conditions: Cricetulus griseus.
Assay [11] concerns CHO-K1. In words: Agonist activity at CCK-B receptor in CHO-K1 cells incubated for 90 sec by microplate reader assay. As to conditions: Cricetulus griseus. The format is cell-based.
Assay [12] concerns CHO-K1. In words: Antagonist activity at CCK-B receptor in CHO-K1 cells at 50 uM incubated for 90 sec by microplate reader assay. The format is cell-based. As to conditions: Cricetulus griseus.

Structures are written as SMILES. Calls of active or inactive are those of the source. No cut-off for these calls is given here.

`CC1CCCN(CC2(c3ccc(Cl)cc3)OC(=O)c3ccccc32)C1` (stereo not drawn): the viability at 1 µM with RBL-2H3 [1] was found to be 99.2%. For the same molecule, the viability at 5 µM with RBL-2H3 [2] amounted to 98%. The viability at 25 µM with RBL-2H3 [3] turned out to be 102%. In addition, in the assay with RBL-2H3 [4], the viability at 125 µM came to 104%. The outcome in [5] was Active.
On the same counts, the results for `O=C1OC(CN2CCCCC2)(c2ccccc2)c2ccccc21` (stereo not drawn) are 99.2%, 102%, 118%, 112% and “Active”.
`C=CCN1CC[C@]23c4c5ccc(O)c4O[C@H]2C(=O)CC[C@@]3(O)[C@H]1C5`: the result with CHO-K1 [6] (filed as antagonist) was Active.
Regarding `C[C@@H](NC(=O)[C@@H](N)Cc1ccc(O)cc1)C(=O)NCC(=O)N(C)[C@@H](Cc1ccccc1)C(=O)NCCO`, the result with CHO-K1 [7] was Active.
Turning to `CC1CCCN(CC2(c3ccccc3)OC(=O)c3ccccc32)C1` (stereo not drawn), the viability at 1 µM in the assay on RBL-2H3 [1] was determined as 92.7%. In the assay with RBL-2H3 [2], the viability at 5 µM turned out to be 101%. The viability at 25 µM in the assay with RBL-2H3 [3] stood at 116%. In the assay on RBL-2H3 [4], the viability at 125 µM is 141%. Also, the outcome in [5] was Active.
On the same counts, the results for `O=C1OC(CN2CCCCCC2)(c2ccc(Cl)cc2)c2ccccc21` (stereo not drawn) are 104%, 109%, 119%, 144% and “Active”.
As to `CNCCC(Oc1ccc(C(F)(F)F)cc1)c1ccccc1` (stereo not drawn), the result (in the assay on RBL-2H3 [8]; in the assay on RBL-2H3 [9]; in assay [5]) was Active.
On to `Cc1ccc(C2(CN3CCCC(C)C3)OC(=O)c3ccccc32)cc1` (stereo not drawn), for which the viability at 1 µM in the assay with RBL-2H3 [1] worked out at 97.6%. Besides, the viability at 5 µM with RBL-2H3 [2] was determined as 101%. In addition, in the assay on RBL-2H3 [3], the viability at 25 µM came out at 121%. Besides, in the assay on RBL-2H3 [4], the viability at 125 µM worked out at 157%. Besides, the outcome in [5] was inactive.
For `O=C1OC(CN2CCCC2)(c2ccccc2)c2ccccc21` (stereo not drawn), the viability at 1 µM in the assay on RBL-2H3 [1] is 119%. Further, the viability at 5 µM in the assay with RBL-2H3 [2] came to 139%. Further, in the assay with RBL-2H3 [3], the viability at 25 µM was 133%. In the assay on RBL-2H3 [4], the viability at 125 µM stood at 181%. Moreover, the outcome in [5] was Active.
On the same counts, the results for `CCOC(=O)C1CCN(CC2(c3ccccc3)OC(=O)c3ccccc32)CC1` (stereo not drawn) are 99.7%, 105%, 130%, 178% and “inactive”.
On to `O=C1OC(CN2CCCCC2)(c2ccc(Cl)cc2)c2ccccc21` (stereo not drawn), for which the viability at 1 µM in the assay with RBL-2H3 [1] came to 97.5%. Further, the viability at 5 µM in the assay on RBL-2H3 [2] turned out to be 98.1%. The viability at 25 µM in the assay on RBL-2H3 [3] came to 107%. For the same molecule, in the assay on RBL-2H3 [4], the viability at 125 µM was 125%. Further, the Activity entry in assay [5] is listed as “Active; Activity Stronger Than Fluoxetine”. Also, the outcome with CHO-K1 [10], in the assay on CHO-K1 [6], in the assay with CHO-K1 [11] and in the assay on CHO-K1 [12] was inactive.
Take `Cc1ccc(C2(CN3CCCCC3)OC(=O)c3ccccc32)cc1` (stereo not drawn): the viability at 1 µM in the assay on RBL-2H3 [1] worked out at 101%. Moreover, in the assay with RBL-2H3 [2], the viability at 5 µM stood at 98.4%. Moreover, the viability at 25 µM in the assay with RBL-2H3 [3] stood at 99%. In addition, in the assay with RBL-2H3 [4], the viability at 125 µM turned out to be 108%. In addition, the outcome in assay [5] was Active.
Regarding `CC(=O)N1CCN(CC2(c3ccccc3)OC(=O)c3ccccc32)CC1` (stereo not drawn), the viability at 1 µM with RBL-2H3 [1] was 102%. Besides, in the assay on RBL-2H3 [2], the viability at 5 µM stood at 109%. The viability at 25 µM in the assay with RBL-2H3 [3] worked out at 129%. In the assay with RBL-2H3 [4], the viability at 125 µM is 165%. Also, the result in assay [5] was inactive.
On the same counts, the results for `CCN(CC)CC1(c2ccc(C)cc2)OC(=O)c2ccccc21` (stereo not drawn) are 101%, 106%, 123%, 160% and “Active”.
The corresponding values for `Cc1ccc(C2(CN3CCCC3)OC(=O)c3ccccc32)cc1` (stereo not drawn) are 94.8%, 95.5%, 100%, 122% and “Active”.
The corresponding values for `CCN(CC)CC1(c2ccccc2)OC(=O)c2ccccc21` (stereo not drawn) are 106%, 113%, 125%, 127% and “Active”.
As to `CCOC(=O)C1CCN(CC2(c3ccc(Cl)cc3)OC(=O)c3ccccc32)CC1` (stereo not drawn), in the assay with RBL-2H3 [1], the viability at 1 µM was 99%. Also, the viability at 5 µM in the assay with RBL-2H3 [2] stood at 97%. In addition, the viability at 25 µM with RBL-2H3 [3] was found to be 96.4%. In the assay with RBL-2H3 [4], the viability at 125 µM amounted to 99%. Further, the outcome in assay [5] was inactive.
For `O=C1OC(CN2CCCCCC2)(c2ccccc2)c2ccccc21` (stereo not drawn), the viability at 1 µM in the assay on RBL-2H3 [1] is 97.8%. Also, in the assay on RBL-2H3 [2], the viability at 5 µM worked out at 101%. Moreover, the viability at 25 µM with RBL-2H3 [3] turned out to be 95.5%. In the assay on RBL-2H3 [4], the viability at 125 µM is 100%. Further, the Activity result in assay [5] is given as “Active; Activity Stronger Than Fluoxetine”. The result in the assay with CHO-K1 [10], in the assay on CHO-K1 [6], with CHO-K1 [11] and with CHO-K1 [12] was inactive.
Take `CC(=O)N1CCN(CC2(c3ccc(C)cc3)OC(=O)c3ccccc32)CC1` (stereo not drawn): in the assay with RBL-2H3 [1], the viability at 1 µM came out at 93.3%. Besides, in the assay on RBL-2H3 [2], the viability at 5 µM was 97.2%. Besides, in the assay with RBL-2H3 [3], the viability at 25 µM worked out at 119%. In addition, the viability at 125 µM in the assay on RBL-2H3 [4] was 120%. In addition, the outcome in assay [5] was Active.
On the same counts, the results for `CCOC(=O)C1CCN(CC2(c3ccc(C)cc3)OC(=O)c3ccccc32)CC1` (stereo not drawn) are 102%, 108%, 125%, 157% and “inactive”.
The corresponding values for `CC(=O)N1CCN(CC2(c3ccc(Cl)cc3)OC(=O)c3ccccc32)CC1` (stereo not drawn) are 99.8%, 106%, 125%, 141% and “Active”.
On the same counts, the results for `Cc1ccc(C2(CN3CCCCCC3)OC(=O)c3ccccc32)cc1` (stereo not drawn) are 98.8%, 106%, 140%, 171% and “inactive”.
